Results published in PubChem BioAssay AID2305 (GlaxoSmithKline (GSK), 2010).

What follows are compounds tested on P. falciparum 3D7 growth, pLDH absorbance (assay: blood-stage malaria parasite growth potency – strain 3D7, dose response (AID 2305)).

SMILES	IC50 [nM]
Oc1ccc(CCNc2nc(NCc3ccccc3-c3ccc(C(F)(F)F)cc3)nc(N3CCCNCC3)n2)cc1	870
CC(C)(C)Nc1nc(Nc2cccc([N+](=O)[O-])c2)nc(-n2ccnc2)n1	810
Cc1cc(NC(=O)Nc2ccc3ncccc3c2)c2ccccc2n1	960
CC1CCN(Cc2ccc(NC(=O)c3cc4ccc5cccnc5c4[nH]3)cc2)CC1	780
CCCc1cc([C@@H](O)[C@@H]2C[C@@H]3CCN2C[C@@H]3CC)c2ccccc2n1	430
CC(CCCCCC(=O)Nc1ccc(CC(C)NCCc2cccc(Cl)c2)cc1)NCCc1cccc(Cl)c1 (stereo unspecified)	950
O=C(c1cccc(-c2cccc(-c3nc4ccccc4[nH]3)c2)c1)N1CCCCC1CN1CCC(O)C1 (stereo unspecified)	730
CCCc1ccc(-c2csc(NC(=O)c3ccc([N+](=O)[O-])o3)n2)cc1	1210
CCOc1ccc2c(NN=Cc3ccccc3OC)cc(C)nc2c1	500
COc1ccc(O)c(C(=O)c2cc(C(=O)NCCc3ccccc3)c(=O)n(CCc3ccccc3)c2)c1	1010
CC(=O)Nc1ccc2[nH]cc(C3CCN(CC4CCC(NC(=O)/C=C/c5ccc(Cl)c(Cl)c5)CC4)CC3)c2n1 (stereo unspecified)	260
O=C(/C=C/C=C/c1ccccc1)NCCCCCN1CCC(c2c[nH]c3ccccc23)CC1	1170
CC(C)c1cccc(C(C)C)c1NC(=O)NNC(=O)c1ccc(CCN2CCC(c3nc(COCC(F)(F)F)c(-c4ccc(F)cc4)o3)CC2)cc1	1090
Cc1cc(N(C)C)nc(Nc2ccc(NC(=O)c3c(F)cccc3F)cc2)n1	1380
CN(CCc1ccccn1)c1cccc2c1nc(-c1cccnc1)n2CCNCc1ccccc1	1060
CN1CCN(CC(=O)Nc2ccc(-c3ccc(-c4nc5ccccc5[nH]4)s3)cc2)CC1	300
O=C(Nc1ccc2nc(-c3ccc4nc(NC(=O)C5CCCCC5)sc4c3)[nH]c2c1)C1CCCCC1	610
O=C(NCC1CCC(CNCCCc2ccccc2)CC1)c1cc(Cl)cc(Cl)c1 (stereo unspecified)	850
Cc1c(C)c2c(c(C)c1O)CC[C@@](C)(C(=O)N1CCC(CCN3CCC(c4c[nH]c5ccccc45)CC3)CC1)O2	670
O=C(C=Cc1ccc(Br)cc1)NC1CCC(CN2CCC(c3c[nH]c4ccccc34)CC2)CC1 (stereo unspecified)	680
Fc1ccc2nc(-c3cccc(-c4ccc(CN5CCN(CCN6CCOCC6)CC5)cc4)c3)[nH]c2c1	310
O=C(/C=C/c1ccc(Cl)c(Cl)c1)NCCCCCCN1CCCN(C(=O)Nc2cccc(Cl)c2)CC1	860
Nc1nc(N)c2cc(CNc3ccc(Cl)c(Cl)c3)ccc2n1	1020
Cc1cc(NN=Cc2ccccc2[N+](=O)[O-])c2cc(F)ccc2n1	660
COC(=O)c1cc(C(=O)CN(Cc2ccccc2)C(C)C)ccc1O	180
Cc1[nH]c(C)c(-c2ccc(OCc3ccc(F)cc3)nc2)c(=O)c1Br	200

SMILES	IC50 [nM]
CCC1CN(S(=O)(=O)c2ccc3c(c2)NC(=O)CC(=O)N3)c2cc(Cl)ccc2O1 (stereo unspecified)	660
COc1cc(NC(=O)C(c2ccc(Cl)cc2)C(C)C)cc(OC)c1OC (stereo unspecified)	530
c1ccc(-c2nc(NCCCn3ccnc3)cc(-c3ccncc3)n2)cc1	170
COc1ccccc1C1CCN(CCCCNC(=O)c2ccc(NC(=O)c3ccc(Cl)cc3)cc2)CC1	240
CC(Cc1ccc(C2=CCNCC2)cc1)NCC(O)c1cccc(C(F)(F)F)c1 (stereo unspecified)	1570
CCCCN(CCCC)C(=Nc1cccc(Cl)c1Cl)Nc1ccc(C#N)cc1O	850
COc1cc(NC(=O)/C=C/c2ccccc2OC(F)(F)F)cc(OCCN2CCCCC2)c1	190
CCCCNCCOc1ccc(-c2nc(-c3ccccc3)c(-c3ccccc3)[nH]2)cc1	680
O=C(CSc1nc2ccccc2c(=O)n1C1CC1)Nc1cc(C(F)(F)F)ccc1Cl	110
COc1ccc(C(=O)Nc2ccc(-c3nc4ccc(C)cc4[nH]3)cc2)cc1OC	760
CCCCCCCCNCC(O)c1ccc(Cl)c(Cl)c1 (stereo unspecified)	820
CCCOc1c(CCNCCCCNCCc2ccc3ccccc3c2OCCC)ccc2ccccc12	480
Cc1c(C(C)(C)C)ccc2nc(N)nc(N)c12	10
Cc1noc(C)c1-c1cccc(CNCc2ccc(-c3ccc(-c4nc5ccc(F)cc5[nH]4)s3)cc2)c1	420
O=C(C=Cc1cccc(F)c1)NC1CCC(CCN2CCc3ccc(-c4cnccn4)cc3CC2)CC1 (stereo unspecified)	450
COc1c(C2CCN(CCCCNC(=O)c3cc(-c4ccc(Cl)cc4)[nH]c3C)CC2)ccc2c1CCCC2	970
Cc1cnc(Nc2ccccc2)nc1NCCC(=O)Nc1ccccc1	1160
COc1ccc2nccc([C@@H](O)CN3CCC(NCCOc4ccccc4C#N)CC3)c2c1	400
Cc1cc(Cl)c(S(=O)(=O)N(C)c2ccccc2)cc1OCC(=O)NC1CCCCC1	300
O=C(Nc1ccc(C(F)(F)F)cc1)NC1CCN(c2ccnc3cc(Cl)ccc23)CC1	180
CN(C)c1nc(NN=Cc2cc(Cl)ccc2O)nc(Nc2ccc(F)cc2)n1	840
COc1cc2nc(NCc3nc4ccccc4[nH]3)nc(N)c2cc1OC	890
CC(=O)c1sc(NC(=O)Nc2ccc(C)cc2C)nc1C	910
Oc1ccc2nc(NCCCc3ccccc3)nc(NCCCc3ccccc3)c2c1	400
O=S(=O)(Nc1cccc(CCN2CCCCC2CCN2CCCC2)c1)c1cccc2ccccc12 (stereo unspecified)	820
CC(C)c1nc2c(N)nc(N)nc2nc1N	1310

SMILES	IC50 [nM]
COc1ccc(NC(=O)/C=C/c2ccccc2Cl)cc1OCCN1CCC(N2CCCC2)CC1	790
Cc1cc(N[C@@H](CC(C)C)C(=O)NCCc2ccccc2)nc(Nc2ccccc2)n1	820
O=C(/C=C/c1c(Cl)cccc1Cl)NC1CCC(CN2CCC(c3c[nH]c4ccncc34)CC2)CC1 (stereo unspecified)	160
CCOc1cc2c(cc1S(=O)(=O)c1ccc(COc3ccc(C(F)(F)F)cc3)cc1)CCN(C)CC2	1020
O=C(Nc1ccc2ccccc2c1)c1ccc(CN2CCC(Cc3ccccc3)CC2)cc1	880
Fc1cccc(Nc2nc(NCCc3ccc(Cl)cc3)nc(Nc3cccc(F)c3)n2)c1	1070
O=C(NCCCCNCC(Cc1cccc(O)c1)c1ccccc1)c1ccc(NC(=O)c2ccc(Cl)cc2)cc1 (stereo unspecified)	1040
COc1cc(C)ccc1N1CCN(CCCCNC(=O)c2ccc(NC(=O)c3ccc(Cl)cc3)cc2)CC1	700
CN1CCN(Cc2ccc(-c3ccc4ncnc(Nc5ccc(OCc6ccccc6)cc5)c4c3)o2)CC1	690
CCOc1ccc2nc(C)cc(NN=Cc3ccc(Cl)cc3)c2c1	760
O=C(/C=C/c1ccc(Cl)c(Cl)c1)NCCC1CCC(N2CCC(c3c[nH]c4ccc(O)cc34)CC2)CC1 (stereo unspecified)	760
O=C(c1ccccc1)N(Cc1ccccc1-c1ccc(CNCCc2ccccc2)cc1)C1CCN(Cc2ccccc2)CC1	990
Cc1cccc2nc(C(=O)Nc3nc(CN4CCC(C)CC4)cs3)cn12	760
CC(C)c1sc(N2CCN(C)CC2)nc1C(=O)NCCc1ccc(Cl)c(Cl)c1	1050
O=C(C=Cc1ccc(Cl)c(Cl)c1)NCCCCCN1CCC(CCCNC(=O)c2sc3ccccc3c2Cl)CC1	400
CNC(=O)NC1=NC(C)(C)N(OCc2ccc(Cl)c(Cl)c2)C(NC(=O)NC)=N1	600
CCCCCCc1ncc(-c2cc3cc(O)c(-c4ccccc4)cc3oc2=O)s1	1240
Cc1cc(N2CCCC2)nc(Nc2ccc(NC(=O)C(C)Oc3ccccc3)cc2)n1 (stereo unspecified)	1140
CCCOc1ccccc1C(=O)Nc1nonc1-c1ccc(OCC)c(OCC)c1	710
CC(C)C(C(=O)Nc1ccc(S(=O)(=O)N(C)C)cc1)c1ccc(Cl)cc1 (stereo unspecified)	940
Cc1cccc2[nH]c(-c3ccc(-c4ccc(CN5CCCCC5)cc4)cc3)nc12	590
FC(F)(F)c1ccc2nc(-c3ccc(-c4ccc(CNCC5CCCO5)cc4)cc3)[nH]c2c1 (stereo unspecified)	410
COc1ccc(C)cc1NC(=O)CSc1nc2cccnc2n1C1CCCCC1	540
CC[C@H]1CN2CC[C@H]1C[C@H]2[C@H](O)c1cc(-c2ccc3ccccc3c2)nc2ccc(OC)cc12	100
COc1ccc2nc3cc(Cl)ccc3c(NCCc3ccccc3)c2c1	950
CC(=O)Nc1cccc(C(=O)Nc2ccc(-c3cccc(-c4nc5ccc(C(F)(F)F)cc5[nH]4)c3)cc2)c1	150

SMILES	IC50 [nM]
CNCc1ccc(CN(C)c2nc(N)c3cc(OC)c(OC)cc3n2)cc1	1030
COc1ccc(CNC(=O)c2cnc3c(O)cccc3c2Nc2cccc(NC(=O)c3ccc(Cl)c(Cl)c3)c2)cc1	600
COc1ccc(-c2ccc(NC(=O)c3ccc(C#N)cc3)cc2)cc1CN1CCCC1	870
Cn1c2ccccc2c2c3ccccc3c(CNC(CO)(CO)CO)cc21	520
COc1cccc(-n2ncc3c(N/N=C/c4ccc(CN(C)CCN(C)C)cc4)ncnc32)c1	890
Cc1cc(NN=Cc2cccc(F)c2)c2ccc(F)cc2n1	230
CCN(CCO)CCCC(C)Nc1ccnc2cc(Cl)ccc12 (stereo unspecified)	760
COc1c(C2CCN(CCCCNC(=O)c3ccc(-c4ccc(Cl)cc4)cc3)CC2)ccc2c1C(C)(C)CCC2(C)C	780
O=C(/C=C/c1ccc(Cl)c(Cl)c1)NC1CCN(CCNC(=O)c2cccc(Cl)c2)CC1	550
COc1ccc2nccc(N3CCN(CCNCc4ccc5c(n4)NC(=O)CO5)CC3)c2c1	1160
CC(C)CNc1c2c(nc3cnn(-c4c5c(nc6cn[nH]c46)CCCC5)c13)CCCC2	790
Cc1nnc2c(NC(=O)NC(C)C)cc3cc(-c4ccc(CN5CCCCC5)cc4)ccc3n12	1180
O=C(NC1CCN(Cc2ccccc2)CC1)c1ccc(-c2nc3cc(Cl)c(F)cc3[nH]2)cc1	250
c1ccc2c(NCCCCCCNc3c4c(nc5ccccc35)CCCC4)c3c(nc2c1)CCCC3	200
Cc1nnc(NC(=O)c2cn(-c3ccccc3)nc2-c2ccccc2C)o1	560
CCOC(=O)C(C(=O)OCC)c1nc(C)ns1	470
COc1ccc(C2(CNCC(O)c3cccc([N+](=O)[O-])c3)CCCC2)cc1OC (stereo unspecified)	890
NC12CC3CC(CC(C3)C1)C2	160
O=C(/C=C/c1ccc(Cl)c(Cl)c1)N1CCC(CNCc2cccc3cc[nH]c23)CC1	1220
FC(F)(F)Oc1cccc(CNc2noc(-c3sccc3Br)n2)c1	880
Cc1nn(CC(C)C)c2sc(C(=O)Nc3nc(-c4ccccn4)cs3)cc12	960
COc1ccc(-c2nc(NC(=O)CSc3ccccc3)sc2C)cc1	760
CCOc1ccccc1CNc1nccc(NCCc2cn(C)c3ccccc23)n1	1260
